Experimental data as given in ChEMBL document CHEMBL5154804, “Species-Selective Targeting of Fungal Hsp90: Design, Synthesis, and Evaluation of Novel 4,5-Diarylisoxazole Derivatives for the Combination Treatment of Azole-Resistant Candidiasis” (J Med Chem, 2022).
Calls of active or inactive are those of the source. No cut-off for these calls is given here.

Tests used:
Candida albicans [1] = assay: Antibiofilm activity against Candida albicans 904 assessed as inhibition of […] metabolism within the biofilm after 48 hrs by XTT reduction assay; format: functional
[2] = Metabolic stability in human liver microsomes assessed as intrinsic clearance in presence of NADPH cofactor under shaking condition for 10 mins measured after 5 to 60 mins by LC-MS/MS analysis; format: ADME, Microsome; settings: time 15-70 min
CYP1A2 = biological target: T1, CYP1A2 (Homo sapiens, UniProt P05177); assay: Inhibition of CYP1A2 in human liver microsome at 10 uM using phenacetin as substrate incubated for 10 mins in presence of NADPH cofactor by LC-MS/MS analysis; format: ADME; settings: liver microsomes, probe phenacetin
T1 sequence (P05177 whole entry): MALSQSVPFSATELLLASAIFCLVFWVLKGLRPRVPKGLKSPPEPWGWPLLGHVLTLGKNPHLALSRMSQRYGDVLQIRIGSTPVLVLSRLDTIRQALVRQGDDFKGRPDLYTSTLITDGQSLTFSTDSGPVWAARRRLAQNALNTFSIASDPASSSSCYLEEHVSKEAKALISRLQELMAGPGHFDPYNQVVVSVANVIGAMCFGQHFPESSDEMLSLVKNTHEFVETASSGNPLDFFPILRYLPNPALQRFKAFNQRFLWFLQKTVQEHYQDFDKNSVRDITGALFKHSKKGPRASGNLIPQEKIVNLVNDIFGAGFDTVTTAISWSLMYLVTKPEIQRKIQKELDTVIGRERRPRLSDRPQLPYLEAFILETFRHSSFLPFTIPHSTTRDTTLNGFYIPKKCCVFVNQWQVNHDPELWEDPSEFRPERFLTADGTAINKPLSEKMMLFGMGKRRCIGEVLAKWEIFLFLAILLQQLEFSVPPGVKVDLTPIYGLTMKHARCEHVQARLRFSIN

CYP2C19 [3] = biological target: T2, CYP2C19 (Homo sapiens, UniProt P33261); assay: Inhibition of CYP2C19 in human liver microsome at 10 uM using S-mephenytoin as substrate incubated for 10 mins in presence of NADPH cofactor by LC-MS/MS analysis; format: ADME; settings: liver microsomes, probe S-mephenytoin
Candida albicans [4] = assay: Synergetic antifungal activity against fluconazole-resistant Candida albicans 311 assessed as fractional inhibitory concentration index in presence of fluconazole by checker board microdilution assay; format: functional
Candida albicans [5] = assay: Synergetic antifungal activity against fluconazole-resistant Candida albicans 904 assessed as fractional inhibitory concentration index in presence of fluconazole by checker board microdilution assay; format: functional
[6] = Stability in human plasma assessed as compound remaining at 120 mins by LC-MS/MS analysis; format: ADME, cell-free; settings: read-out: Stability
[7] = Stability in human plasma assessed as half life at 120 mins by LC-MS/MS analysis; format: ADME, cell-free
[8] = Metabolic stability in rat liver microsomes assessed as half life in presence of NADPH cofactor under shaking condition for 10 mins measured after 5 to 60 mins by LC-MS/MS analysis; format: ADME, Microsome; settings: time 15-70 min
CYP2C19 [9] = biological target: T2, CYP2C19; assay: Inhibition of CYP2C19 in human liver microsome at 10 uM using S-mephenytoin as substrate incubated for 10 mins in presence of NADPH cofactor and fluconazole by LC-MS/MS analysis; format: ADME; settings: liver microsomes, probe S-mephenytoin
Rattus norvegicus [10] = assay: In vivo antifungal activity against azole resistant Candida albicans 904 infected in rat assessed as colonization of fungal cells at 10 mg/kg, ip administered for 5 days, qd by PAS and HE staining based microscopy; format: functional, organism-based; settings: time 5.0 day
Candida albicans [11] = assay: Synergistic antifungal activity against fluconazole-resistant Candida albicans 100 assessed as inhibition of fungal growth in presence of fluconazole by checker board microdilution assay; format: functional
CYP2D6 = CYP2D6 (Homo sapiens, UniProt P10635); assay: Inhibition of CYPD6 in human liver microsome at 10 uM using dextromethorphan as substrate incubated for 10 mins in presence of NADPH cofactor and fluconazole by LC-MS/MS analysis; format: ADME; settings: liver microsomes, probe dextromethorphan
RAW264.7 = assay: Cytotoxicity against mouse RAW264.7 cell assessed as inhibition of cell growth after 24 hrs by MTT assay; format: functional, cell-based; settings: RAW264.7, 24 h
[12] = Metabolic stability in rat liver microsomes assessed as compound remaining in presence of NADPH cofactor under shaking condition for 10 mins measured after 60 mins by LC-MS/MS analysis; format: ADME, Microsome; settings: time 70 min, read-out: Stability
Candida albicans [13] = assay: Induction of morphological changes in Candida albicans 904 assessed as hyphal formation by measuring EFG1 level incubated for 4 hrs in presence of fluconazole; format: functional, organism-based
[14] = Half life in Sprague-Dawley rat at 10 mg/kg, iv measured upto 24 hrs by LC/MS/MS analysis; format: ADME, organism-based; settings: in vivo
Candida albicans [15] = assay: Antifungal activity against fluconazole-resistant Candida albicans 103 assessed as inhibition of fungal growth by checker board microdilution assay; format: functional
Candida albicans [16] = assay: Reversal of fluconazole mediated azole resistance Candida albicans 904 assessed as downregulation of CDR2 at 32 ug/ml in presence of fluconazole by RT-PCR; format: functional, organism-based; settings: dose 32.0 µg/ml
Candida albicans [17] = assay: Reversal of fluconazole mediated azole resistance Candida albicans 904 assessed as downregulation of CDR1 at 32 ug/ml in presence of fluconazole by RT-PCR; format: functional, organism-based; settings: dose 32.0 µg/ml
CYP2C9 = CYP2C9 (Homo sapiens, UniProt P11712); assay: Inhibition of CYP2C9 in human liver microsome at 10 uM using diclofenac as substrate incubated for 10 mins in presence of NADPH cofactor and fluconazole by LC-MS/MS analysis; format: ADME; settings: liver microsomes, probe diclofenac
Rattus norvegicus [18] = assay: In vivo antifungal activity against azole resistant Candida albicans 904 infected in rat assessed as reduction in kidney fungal burden at 10 mg/kg, ip administered for 5 days, qd in presence of fluconazole; format: functional, organism-based; settings: time 5.0 day
Candida albicans [19] = assay: Synergistic antibiofilm activity in Candida albicans 904 assessed as downregulation of ALS3 at 32 ug/ml incubated for 24 hrs in presence of fluconazole by RT-PCR analysis; format: functional, organism-based; settings: dose 32.0 µg/ml
Candida albicans [20] = assay: Synergetic antifungal activity against fluconazole-resistant Candida albicans 901 assessed as fractional inhibitory concentration index in presence of fluconazole by checker board microdilution assay; format: functional
[21] = Cmax in Sprague-Dawley rat at 10 mg/kg, iv measured up to 24 hrs by LC/MS/MS analysis; format: ADME, organism-based; parameters: dose 10 mg/kg, time < 24 hrs, route iv; settings: in vivo
[22] = Metabolic stability in rat liver microsomes assessed as microsomal intrinsic clearance in presence of NADPH cofactor under shaking condition for 10 mins measured after 5 to 60 mins by LC-MS/MS analysis; format: ADME, Microsome; settings: time 15-70 min
Candida albicans [23] = assay: Potentiation of fluconazole-induced antifungal activity against fluconazole-resistant Candida albicans 904 assessed as fluconazole MIC by checker board microdilution assay; format: functional
Candida albicans [24] = assay: Synergistic antifungal activity against fluconazole-resistant Candida albicans 632 assessed as inhibition of fungal growth in presence of fluconazole by checker board microdilution assay; format: functional
[25] = C0 in Sprague-Dawley rat at 10 mg/kg, iv measured upto 24 hrs by LC/MS/MS analysis; format: ADME, organism-based; settings: in vivo
[26] = Binding affinity to recombinant Candida albicans Hsp90 NBD expressed in Escherichia coli by SPR assay
Heat shock protein HSP90 = Heat shock protein HSP90 (Homo sapiens, UniProt P07900+P08238); assay: Binding affinity to human Hsp90 expressed in Escherichia coli by SPR assay

T2 sequence (P33261 whole entry): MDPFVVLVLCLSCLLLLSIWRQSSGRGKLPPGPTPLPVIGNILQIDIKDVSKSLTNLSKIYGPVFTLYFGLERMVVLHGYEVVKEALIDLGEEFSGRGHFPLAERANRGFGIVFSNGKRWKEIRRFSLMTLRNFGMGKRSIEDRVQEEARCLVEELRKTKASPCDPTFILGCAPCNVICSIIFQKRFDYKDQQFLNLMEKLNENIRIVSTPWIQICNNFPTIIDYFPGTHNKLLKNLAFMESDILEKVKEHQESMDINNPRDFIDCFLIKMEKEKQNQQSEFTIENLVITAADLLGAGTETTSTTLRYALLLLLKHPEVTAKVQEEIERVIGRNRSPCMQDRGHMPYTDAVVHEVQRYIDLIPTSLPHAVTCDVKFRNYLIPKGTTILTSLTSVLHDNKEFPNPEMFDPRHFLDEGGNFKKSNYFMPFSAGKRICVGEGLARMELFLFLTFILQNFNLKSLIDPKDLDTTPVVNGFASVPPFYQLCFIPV
CYP2D6, sequence (P10635 whole entry): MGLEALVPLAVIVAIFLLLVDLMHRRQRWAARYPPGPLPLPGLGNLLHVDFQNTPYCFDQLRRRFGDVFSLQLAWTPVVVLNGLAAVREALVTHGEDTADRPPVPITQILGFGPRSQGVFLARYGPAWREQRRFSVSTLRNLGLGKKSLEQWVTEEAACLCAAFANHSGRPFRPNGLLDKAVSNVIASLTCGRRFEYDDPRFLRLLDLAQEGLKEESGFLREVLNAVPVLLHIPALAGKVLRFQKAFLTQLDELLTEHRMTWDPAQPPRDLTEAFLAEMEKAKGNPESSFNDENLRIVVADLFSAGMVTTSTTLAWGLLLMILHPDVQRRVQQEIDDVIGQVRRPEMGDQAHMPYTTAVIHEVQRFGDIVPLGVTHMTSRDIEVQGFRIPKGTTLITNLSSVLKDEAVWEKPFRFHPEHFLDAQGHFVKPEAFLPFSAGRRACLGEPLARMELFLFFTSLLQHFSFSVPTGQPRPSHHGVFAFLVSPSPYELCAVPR
CYP2C9, sequence (P11712 whole entry): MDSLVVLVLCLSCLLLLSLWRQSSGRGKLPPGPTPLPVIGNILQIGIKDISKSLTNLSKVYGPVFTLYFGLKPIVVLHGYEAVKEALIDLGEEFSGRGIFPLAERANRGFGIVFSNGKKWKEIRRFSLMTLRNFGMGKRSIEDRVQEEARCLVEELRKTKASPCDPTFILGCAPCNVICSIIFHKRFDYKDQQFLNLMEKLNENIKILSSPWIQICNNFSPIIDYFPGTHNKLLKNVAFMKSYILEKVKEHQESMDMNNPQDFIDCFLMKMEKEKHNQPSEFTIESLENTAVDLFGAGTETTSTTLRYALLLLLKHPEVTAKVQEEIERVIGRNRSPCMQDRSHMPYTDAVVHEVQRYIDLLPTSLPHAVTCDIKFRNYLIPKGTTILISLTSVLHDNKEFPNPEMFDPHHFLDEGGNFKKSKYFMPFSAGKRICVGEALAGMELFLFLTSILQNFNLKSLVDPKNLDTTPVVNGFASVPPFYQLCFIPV

| Compound | MIC50 (Candida albicans [1]) [µg/mL] | CLint [2] [mL/min/kg] | inhibition at 10 min, 10 µM (CYP1A2) [%] | inhibition at 10 min, 10 µM (CYP2C19 [3]) [%] | fractional inhibitory concentration index (FICI) (Candida albicans [4]) | fractional inhibitory concentration index (FICI) (Candida albicans [5]) | remaining at 2 h [6] [%] | half-life [7] [h] | MIC80 (Candida albicans [11]) [µg/mL] | IC50 (RAW264.7) [µM] | Activity (Candida albicans [13]) | MIC80 (Candida albicans [15]) [µg/mL] | Activity (Candida albicans [19]) | fractional inhibitory concentration index (FICI) (Candida albicans [20]) | MIC80 (Candida albicans [23]) [µg/mL] | MIC80 (Candida albicans [24]) [µg/mL] | other results |
| --- | --- | --- | --- | --- | --- | --- | --- | --- | --- | --- | --- | --- | --- | --- | --- | --- | --- |
| CCNC(=O)c1noc(-c2cc(-c3ccc(C)cc3)c(O)cc2O)c1-c1ccc(CN2CCOCC2)cc1 | > 64 | 38.9 | 8 | 22.2 | 0.035 | 0.035 | 110 | > 4.8 | 0.125 | 17.1 | Active | > 64 | Active | 0.018 | 2 | 0.125 | half-life [8]: 0.51 h; inhibition at 10 min, 10 µM (CYP2C19 [9]): 56.9%; Activity (Rattus norvegicus [10]): Active; inhibition at 10 min, 10 µM (CYP2D6): 36.4%; remaining at 1.167 h [12]: 23.6%; half-life [14]: 1.26 h; Activity (Candida albicans [16]): Active; Activity (Candida albicans [17]): Active; inhibition at 10 min, 10 µM (CYP2C9): 56.1%; Activity (Rattus norvegicus [18]): Active; Cmax [21]: 3440 ng/mL; CLint [22]: 45.3 µL/min/mg; C0 at 24 h [25]: 4750 ng/mL |
| CNC(=O)c1noc(-c2cc(-c3ccc(C)cc3)c(O)cc2O)c1-c1ccc(CN2CCOCC2)cc1 | > 64 | 50.3 | 9.9 | 18.6 | 0.062 | 0.02 | 92.8 | > 4.8 | 0.25 | 11.3 | Active | > 64 | Active | 0.039 | 1 | 0.5 | Kd [26]: 0.933 µM; Kd (Heat shock protein HSP90): > 25 µM |
